In ChEMBL document CHEMBL4483862, “Open-source discovery of chemical leads for next-generation chemoprotective antimalarials” (2018) one finds IC50 and IC90 data, which are given here for 40 compounds.

Structures are written as SMILES.

One may read the IC50 as the concentration needed to halve the response being measured. Usually IC90 stands for the concentration at which the effect reaches the 90% level.

For this assay, the system named is Plasmodium berghei. The assay is described as follows: Luciferase/luciferin-expressing antifolate-resistant parasites were used to infect a culture of HepG2 cells that were pre-incubated with compounds. Infected hepatocytes emit light due to the luciferase reaction. Assay results are presented as the percent inhibition of light emission compared to control. […]. The format is functional. The following applies: sporozoite; for IC90: read-out: LUCIFERASE INFECTION ASSAY - IC90.

Where [1] appears, read: read-out: LUCIFERASE INFECTION ASSAY - IC50.

Take `Nc1ncc(-c2ccc(F)cc2F)cc1-c1cccc(C(F)(F)F)c1`: the 90% effect concentration (IC90) is over 9.42 µM. Also, under “PBLUC_HILL_SLOPE 3.4, PBLUC_R_SQUARED 0.237, read-out: LUCIFERASE INFECTION ASSAY - IC50”, the half-maximal inhibitory concentration (IC50) came to 7.55 µM.
Turning to `O=C1C=CC(=O)N1c1ccc(Cl)cc1Cl`, the 90% effect concentration (IC90) was over 13.6 µM. For the same compound, for the setting “FFLUC_HILL_SLOPE 227, FFLUC_R_SQUARED 0.205, read-out: LUCIFERASE INFECTION ASSAY - IC50”, the 50% inhibitory concentration (IC50) was over 13.6 µM.
Consider `CC(C)(C)OC(=O)N1CCc2nc(NC(=O)c3csc(-c4ccco4)n3)sc2C1`, for which the IC90 is over 10 µM. Further, the half-inhibitory concentration (IC50) (PBLUC_HILL_SLOPE 10.5, PBLUC_R_SQUARED 0.574, read-out: LUCIFERASE INFECTION ASSAY - IC50) came to 9.17 µM.
As for `Cn1cc(-c2cn3c(-c4ccc(C(C)(C)C)cc4)cnc3cn2)cn1`, the 90% effect concentration (IC90) was over 9.96 µM. Besides, the 50% inhibitory concentration (IC50) (PBLUC_HILL_SLOPE 3.33, PBLUC_R_SQUARED 0.519, read-out: LUCIFERASE INFECTION ASSAY - IC50) was 6.79 µM.
For the compound `O=C(NC1CCCc2ccccc21)c1cc(-c2cccs2)nn1-c1ccccc1` (stereo not given), the IC90 is over 10 µM. The IC50 (FFLUC_HILL_SLOPE 14.9, FFLUC_R_SQUARED 0.608, PBLUC_HILL_SLOPE 2.01, PBLUC_R_SQUARED 0.0278, read-out: LUCIFERASE INFECTION ASSAY - IC50) was determined as 6.82 µM.
In the case of `CC(=O)Nc1cccc(-c2ccc3ncc(-c4ccc(CO)cc4)n3n2)c1`, the IC90 is 8.06 µM. Also, the IC50 under setting [1] stood at 2.73 µM.
With `CCCN1CCc2nc(NCc3ccc(Cl)c(Cl)c3)ncc2C1`, the 90% effect concentration (IC90) was over 9.39 µM. For the same compound, under setting [1], the IC50 worked out at 5.58 µM.
The matching figures for `Cc1cc(C)n2nc(C(=O)OCC(=O)N(C)Cc3ccsc3)nc2n1`: over 10 µM and over 10 µM.
For the compound `c1ccc2c3c(ccc2c1)CCc1ccc2ccccc2c1-3`, the concentration for an effect of 90% (IC90) is over 11.8 µM. The IC50 (FFLUC_HILL_SLOPE 12.1, FFLUC_R_SQUARED 0.622, read-out: LUCIFERASE INFECTION ASSAY - IC50) is over 11.8 µM.
Consider `OCCNCc1cc(Br)ccc1OCc1ccc(F)cc1`, for which the concentration for an effect of 90% (IC90) was 3.12 µM. Moreover, the IC50 (PBLUC_HILL_SLOPE 16.8, PBLUC_R_SQUARED 0.362, read-out: LUCIFERASE INFECTION ASSAY - IC50) was found to be 2.74 µM.
For `COc1ccc(/C=C2\CCCC3C2=NN(C(=O)CSc2ccccn2)C3c2ccc(OC)cc2)cc1` (stereo not given), the IC90 was found to be 9.76 µM. Under “PBLUC_HILL_SLOPE 1.58, PBLUC_R_SQUARED 0.267, read-out: LUCIFERASE INFECTION ASSAY - IC50”, the IC50 was 2.44 µM.
Regarding `CCOC(=O)N1CCC(NC(=O)/C(=C/c2ccc(OC(F)F)cc2)c2ccccc2)CC1`, the IC90 stood at 9.96 µM. Moreover, the half-maximal inhibitory concentration (IC50) (PBLUC_HILL_SLOPE 9.1, PBLUC_R_SQUARED 0.0303, read-out: LUCIFERASE INFECTION ASSAY - IC50) turned out to be 7.82 µM.
On to `COc1cc(-c2nc3ccc(NC(=O)Nc4ccc(OC(F)(F)F)cc4)cn3n2)cc(OC)c1OC`, for which the 90% effect concentration (IC90) came to 4.73 µM. Further, the IC50 (HEPG2TOX_HILL_SLOPE 11.1, HEPG2TOX_R_SQUARED 0.679, PBLUC_HILL_SLOPE 2.84, PBLUC_R_SQUARED 0.644, read-out: LUCIFERASE INFECTION ASSAY - IC50) was 2.18 µM.
With `Cc1nn(CC(=O)N2c3ccccc3NC(=O)CC2C)c(=O)c(C#N)c1C` (stereo not given), the IC90 is over 2 µM. Moreover, the IC50 under setting [1] was over 2 µM.
With `CCc1cc(=O)n2nc(-c3ccccc3)c(-c3ccccc3)c2[nH]1`, the concentration for an effect of 90% (IC90) was over 10.5 µM. Under “HEPG2TOX_HILL_SLOPE 1.41, HEPG2TOX_R_SQUARED 0.964, PBLUC_HILL_SLOPE 4.43, PBLUC_R_SQUARED 0.223, read-out: LUCIFERASE INFECTION ASSAY - IC50”, the 50% inhibitory concentration (IC50) turned out to be 7.37 µM.
Turning to `N#Cc1ccc(N2CCCN(C(=O)Nc3cc(Cl)cc(Cl)c3)CC2)nc1`, the IC90 is over 8.46 µM. For the same compound, the IC50 under setting [1] is over 8.46 µM.
Regarding `COCCn1c(SC(C)C(=O)c2ccc(Br)cc2)nnc1-c1cccc(C)c1` (stereo not given), the IC90 was over 10 µM. In addition, under setting [1], the IC50 is over 10 µM.
On to `O=C(COC(=O)c1cn(-c2ccccc2)nc1-c1cccs1)Nc1nnc(-c2ccccc2)o1`, for which the concentration for an effect of 90% (IC90) was over 10 µM. Also, under setting [1], the IC50 is over 10 µM.
With `O=C(Nc1ccnn1Cc1ccccc1)c1ccc(C(=O)c2ccccc2)cc1`, the 90% effect concentration (IC90) was over 10 µM. In addition, under “PBLUC_HILL_SLOPE 1.71, PBLUC_R_SQUARED 0.158, read-out: LUCIFERASE INFECTION ASSAY - IC50”, the IC50 was found to be 5.74 µM.
As to `O=C(NNC(=O)c1ccccc1OCc1cn2ccccc2n1)c1ccc2ccccc2n1`, the concentration for an effect of 90% (IC90) was determined as 1.74 µM. Further, the IC50 (HEPG2TOX_HILL_SLOPE 1.26, HEPG2TOX_R_SQUARED 0.832, PBLUC_HILL_SLOPE 7.59, PBLUC_R_SQUARED 0.237, read-out: LUCIFERASE INFECTION ASSAY - IC50) is 1.31 µM.
Regarding `CC(C)(C)c1ccc(C(=O)Nc2ccc(N3CCCS3(=O)=O)cc2)cc1[N+](=O)[O-]`, the 90% effect concentration (IC90) came to 5.03 µM. The IC50 (HEPG2TOX_HILL_SLOPE 9.4, HEPG2TOX_R_SQUARED 0.847, PBLUC_HILL_SLOPE 1.92, PBLUC_R_SQUARED 0.511, read-out: LUCIFERASE INFECTION ASSAY - IC50) was determined as 1.6 µM.
Turning to `CSc1sc(-c2nc(C(C)(C)C)cs2)c(C)c1C(C)=O`, the 90% effect concentration (IC90) is over 10.1 µM. Under setting [1], the IC50 was over 10.1 µM.
`OCc1ccc(-c2cn3c(-c4ccc(Oc5ccccc5)cc4)cnc3cn2)cc1`: the IC90 was over 8.39 µM. Moreover, where the note is “PBLUC_HILL_SLOPE 2.74, PBLUC_R_SQUARED 0.523, read-out: LUCIFERASE INFECTION ASSAY - IC50”, the IC50 amounted to 5.32 µM.
`CC(C)(C)NC(=S)N/N=C/c1ncc(C(F)(F)F)cc1Sc1ccc(Cl)cc1`: the IC90 turned out to be 4.33 µM. In addition, where the note is “FFLUC_HILL_SLOPE 15.8, FFLUC_R_SQUARED 0.683, HEPG2TOX_HILL_SLOPE 2.2, HEPG2TOX_R_SQUARED 0.982, PBLUC_HILL_SLOPE 3.41, PBLUC_R_SQUARED 0.827, read-out: LUCIFERASE INFECTION ASSAY - IC50”, the IC50 came out at 2.27 µM.
In the case of `c1ccc(-c2cc3c(Oc4ccc(-n5ccnc5)cc4)ncnc3s2)cc1`, the 90% effect concentration (IC90) is over 10 µM. Where the note is “PBLUC_HILL_SLOPE 1.81, PBLUC_R_SQUARED 0.315, read-out: LUCIFERASE INFECTION ASSAY - IC50”, the IC50 was found to be 6.93 µM.
`Cn1nc(-c2ccccc2)c(/C=N/O)c1Sc1ccc(C(C)(C)C)cc1`: the 90% effect concentration (IC90) is over 9.03 µM. Besides, the IC50 (FFLUC_HILL_SLOPE 15.8, FFLUC_R_SQUARED 0.096, HEPG2TOX_HILL_SLOPE 2.21, HEPG2TOX_R_SQUARED 0.952, PBLUC_HILL_SLOPE 13.8, PBLUC_R_SQUARED 0.121, read-out: LUCIFERASE INFECTION ASSAY - IC50) worked out at 8.79 µM.
For `O=S(=O)(c1ccc(N=C2NN=C(c3ccc4ccccc4c3)CS2)cc1)N1CCOCC1`, the IC90 stood at 9.33 µM. Moreover, the half-inhibitory concentration (IC50) under setting [1] was 4.82 µM.
Consider `CC(=O)c1sc(SCCS(=O)(=O)c2ccccc2)c2c1CC(C)(C)CC2=O`, for which the 90% effect concentration (IC90) is over 7.81 µM. Moreover, the 50% inhibitory concentration (IC50) under setting [1] is over 7.81 µM.
Turning to `c1ccc(Cn2cc(-c3cn4c(-c5ccc6ncccc6c5)cnc4cn3)cn2)cc1`, the concentration for an effect of 90% (IC90) is over 8.2 µM. The IC50 under setting [1] is over 8.2 µM.
With `CCn1c2ccccc2c2cc(NC(=O)COC(=O)Cc3cccs3)ccc21`, the 90% effect concentration (IC90) is over 10 µM. Also, where the note is “PBLUC_HILL_SLOPE 11.3, PBLUC_R_SQUARED 0.588, read-out: LUCIFERASE INFECTION ASSAY - IC50”, the half-maximal inhibitory concentration (IC50) is 9.26 µM.
In the case of `Cc1c(Cl)cccc1-c1ccc(C(=O)NCc2ccco2)o1`, the IC90 is over 10.5 µM. Moreover, the IC50 under setting [1] was over 10.5 µM.
`O=C1C=C(c2ccccc2)C(=O)N1Nc1ccccc1`: the concentration for an effect of 90% (IC90) is over 12.5 µM. Also, the concentration for half-maximal inhibition (IC50) under setting [1] was over 12.5 µM.
For the compound `CCOC(=O)C1CCCN(Cn2nc(-c3ccc(Br)cc3)n(C3CCCCC3)c2=S)C1` (stereo not given), the IC90 was over 10 µM. Besides, the half-inhibitory concentration (IC50) (PBLUC_HILL_SLOPE 2.91, PBLUC_R_SQUARED 0.109, read-out: LUCIFERASE INFECTION ASSAY - IC50) was found to be 5.86 µM.
As to `COCCN(Cc1nnc(-c2cccs2)o1)C(=O)c1cc(C2CC2)nc2c1cnn2C(C)C`, the IC90 was over 10 µM. The IC50 under setting [1] was over 10 µM.
Take `CC(C)Cc1nc(N2CCNCC2)c(C#N)c2c1CCCC2`: the IC90 is over 11.1 µM. Also, the half-maximal inhibitory concentration (IC50) (PBLUC_HILL_SLOPE 17, PBLUC_R_SQUARED 0.257, read-out: LUCIFERASE INFECTION ASSAY - IC50) was 10 µM.
As to `CN1CCN(c2ccc(-c3cn4c(-c5ccc6ncccc6c5)cnc4cn3)cn2)CC1`, the 90% effect concentration (IC90) was 3.03 µM. Further, for the setting “HEPG2TOX_HILL_SLOPE 4.41, HEPG2TOX_R_SQUARED 0.745, PBLUC_HILL_SLOPE 17.7, PBLUC_R_SQUARED 0.338, read-out: LUCIFERASE INFECTION ASSAY - IC50”, the IC50 is 2.68 µM.
In the case of `CC(=O)Nc1sc2c(c1C(=O)OCC(=O)Nc1cc(S(=O)(=O)N3CCOCC3)ccc1Cl)CCCC2`, the IC90 is over 10 µM. Under setting [1], the IC50 is over 10 µM.
For `CC(=O)Nc1ccc(NC(=O)C2=COC3=NC(=O)N(Cc4ccccc4C)CCN23)cc1`, the 90% effect concentration (IC90) is over 10 µM. Further, the half-inhibitory concentration (IC50) (HEPG2TOX_HILL_SLOPE 0.88, HEPG2TOX_R_SQUARED 0.892, PBLUC_HILL_SLOPE 1, PBLUC_R_SQUARED 0.725, read-out: LUCIFERASE INFECTION ASSAY - IC50) is 4.16 µM.
Consider `Clc1ccc(OCCN2CCN(c3ccc4nnnn4n3)CC2)cc1`, for which the concentration for an effect of 90% (IC90) was over 10 µM. Moreover, for the setting “PBLUC_HILL_SLOPE 2.76, PBLUC_R_SQUARED 0.489, read-out: LUCIFERASE INFECTION ASSAY - IC50”, the IC50 was 6.13 µM.
On to `CN(CC(=O)Nc1nc(C23CC4CC(CC(C4)C2)C3)cs1)S(=O)(=O)c1cccs1`, for which the IC90 was 3.45 µM. In addition, the IC50 (FFLUC_HILL_SLOPE 3.68, FFLUC_R_SQUARED 0.43, PBLUC_HILL_SLOPE 112, PBLUC_R_SQUARED 0.327, read-out: LUCIFERASE INFECTION ASSAY - IC50) came to 3.38 µM.
